Reference: paper PMC4167557 (Nanomedicine (London, England), 2014)
Bridges are numbered along the chain shown (N, C = ends). Where no end group is shown, it is not given here.

How the values were obtained:
[1] = tested on: CLL1-expressing cells; conditions: therapeutic concentration of approximately 4 µM ref 8; cited from earlier work
[2] = tested on: K562-CLL1 xenograft; assay: Efficacy in mice bearing K562-CLL1 xenograft; assay type: in vivo, nude mice; conditions: 10 mg/kg every 3 days
[3] = tested on: Caspase 3/7 in heart tissues; assay: Caspase-Glo 3/7 assay in heart tissue; assay type: in vivo; conditions: 25 mg/kg, 5 days after treatment
[4] = Pharmacokinetics in mice after single intravenous injection; assay type: in vivo, BALB/c mice
[5] = tested on: plasma creatine kinase MB isoenzyme; assay: Plasma CK-MB ELISA; assay type: in vivo; conditions: mice, single dose DNR 15 mg/kg
[6] = tested on: vital organs (heart, liver, spleen, lung, kidney); assay: Histological analysis of organ toxicity; assay type: in vivo; conditions: mice, 5 days after treatment
[7] = Pharmacokinetics in rats after single intravenous injection; assay type: in vivo, Sprague–Dawley rats
[8] = tested on: plasma cardiac troponin T (cTnT); assay: Plasma cardiac troponin T ELISA; assay type: in vivo; conditions: single dose DNR 15 mg/kg
[9] = BALB/c, mouse, plasma, iv, 10 mg/kg
[10] = mice, 10 mg/kg DNR iv, mean ± SD
[11] = Sprague-Dawley, rat, plasma, iv, 5 mg/kg
[12] = rats, 5 mg/kg DNR iv, mean ± SD

Compound: CLL1-targeting ligand: CLL1-targeting peptide (amino acid sequence: CDLRSAAVC), cyclized via disulfide (disulfide 1-9 (inferred))
- increase of micelle-mediated drug delivery to CLL1-expressing cells [1]: approximately threefold

Compound: COc1cccc2c1C(=O)c1c(O)c3c(c(O)c1C2=O)C[C@@](O)(C(C)=O)C[C@@H]3O[C@H]1C[C@H](N)[C@H](O)[C@H](C)O1 [Free DNR, daunorubicin]
- overall survival [2]: 44 days
- caspase 3/7 activity in cardiac tissue relative to control mice treated with PBS [3]: about 3.46 times
- AUC(0-t) [4, 9]: 836 ± 151 µg·h/mL
- Cmax [4, 9]: 961000 ± 92000 ng/mL
- MRT [4, 9]: 16.7 h
- Vd [4, 9]: 0.205 ± 0.048 L/kg
- clearance [4, 9]: 0.2 ± 0.03 mL/min/kg
- concentration at 24 h [4, 9]: 13600 ± 1920 ng/mL
- half-life ([4]; BALB/c, mouse, plasma, iv, 10 mg/kg, T 1/2β, mice, 10 mg/kg DNR iv): 11.9 ± 1 h
- T 1/2α ([4]; mice, 10 mg/kg DNR iv, initial half-life in plasma): 1.11 ± 0.04 min
- Kel [4, 10]: 3.68 ± 6.35
- α [4, 10]: 0.63 ± 0.02 min⁻¹
- β [4, 10]: 0.0001 min⁻¹
- plasma CK-MB level ([5]; 3 h after dosing): 60.02 ± 4.05 U/l
- plasma CK-MB level ([5]; 5 days of follow-up): 113.98 ± 10.42 U/l
- histopathological changes in cardiac tissue ([6]; 25 mg/kg): marked myocardial toxicity
- histopathological changes in spleen ([6]; low- or high-dose (5 and 25 mg/kg)): Marked red pulp hemorrhage-associated compensative sinusoidal histocytic proliferation and extramedullary hematopoiesis
- AUC(0-t) [7, 11]: 3.6 ± 0.79 µg·h/mL
- Cmax [7, 11]: 1910 ± 260 ng/mL
- MRT [7, 11]: 36.2 ± 6.51 h
- Vd [7, 11]: 50.8 L/kg
- clearance [7, 11]: 23.7 ± 5.2 mL/min/kg
- half-life ([7]; Sprague-Dawley, rat, plasma, iv, 5 mg/kg, T 1/2β, rats, 5 mg/kg DNR iv): 25.4 ± 4.54 h
- T 1/2α ([7]; rats, 5 mg/kg DNR iv): 56.4 ± 0 s
- Kel [7, 12]: 0.01 ± 0.00
- α [7, 12]: 0.74 ± 0.00 min⁻¹
- β [7, 12]: 0.00 ± 0.00 min⁻¹
- cTnT level relative to control mice ([8]; 1 day after dosing): 9.15 times
- cTnT level relative to control mice ([8]; 3 days (peak)): 15.8 times
